Data from paper PMC7927616, “Dual‐Targeting Peptide‐Guided Approach for Precision Delivery and Cancer Monitoring by Using a Safe Upconversion Nanoplatform” (Advanced Science, 2021).

Tests used:
[1] = In vivo biodistribution by ICP-MS (Gd); design: species or system BALB/c nude mice; conditions: mouse, iv
p65 in C666 cells = test: NF‐κB signaling analysis by Western blotting; format: cell-based; conditions: Western blot band density
Text: (§1) NF‐ĸB signaling pathway is critical for the survival of EBV‐infected tumor cells. Here we investigated if our nanoprobes could affect this oncogenic pathway. EBV‐positive LCL3 and C666 cells were used as models, EBV‐negative HK1 cells were used as control and Western blot was used to analyze the protein expression of p65, a major transcription factor in the NF‐ĸB family. […] GAPDH and Histone are regarded as internal standards in cytosolic and nuclear fractions, respectively. […] This is consistent with the cellular uptake results. The negligible differences of p65 expression level in HK1 cells were quantified after various treatments in Figure S28 (Supporting Information).
(§2) EBV‐positive C666, LCL3 and EBV‐negative HK1 cell pellets were treated with phosphatase and protease inhibitors at 0–4 °C for 30 min. The total protein concentrations were calculated by protein absorbance. The protein was resolved by sodium dodecyl sulfate‐polyacrylamide gel electrophoresis (SDS‐PAGE) and transferred to cellulose filter membranes. The membranes were blocked with 3% BSA in tris‐buffered saline in 0.1% Tween 20 (TBST) for 1 h with gentle shaking and subsequently incubated with primary antibodies (1:1000) in 3% BSA in TBST at 4 °C for overnight. […] Lastly, the density of bands was determined by image analysis system after washing with TBST buffer three times.

p65 in LCL3 cells = test: NF‐κB signaling analysis by Western blotting; format: cell-based; conditions: Western blot band density
Text: as §1, §2

Substance | Tumor uptake [1] | Decreased p65 expression, nuclear fraction (p65 in C666 cells) [%] | Decreased p65 expression, nuclear fraction (p65 in LCL3 cells) [%]
NaGdF4:Yb^3+, Er^3+@NaGdF4 [UCNP] | nearly undetectable | – | –
‐Ahx‐YFMVFGGRrRKGGFWLY [P5] | – | 89 | 86
